Source: patent US12662491B2 (Redona Therapeutics, Inc., priority 2020, dated 2026)
Read-outs that look alike come from different tables or passages of the source.

Molecular target: T1, Zcchc11 enzyme (Homo sapiens, UniProt Q5TAX3)
T1 construct: made in house; host or cells: HEK293 cells (Zcchc11); E. coli Rosetta II (LIN28A)
T1 sequence (Q5TAX3 212-1420): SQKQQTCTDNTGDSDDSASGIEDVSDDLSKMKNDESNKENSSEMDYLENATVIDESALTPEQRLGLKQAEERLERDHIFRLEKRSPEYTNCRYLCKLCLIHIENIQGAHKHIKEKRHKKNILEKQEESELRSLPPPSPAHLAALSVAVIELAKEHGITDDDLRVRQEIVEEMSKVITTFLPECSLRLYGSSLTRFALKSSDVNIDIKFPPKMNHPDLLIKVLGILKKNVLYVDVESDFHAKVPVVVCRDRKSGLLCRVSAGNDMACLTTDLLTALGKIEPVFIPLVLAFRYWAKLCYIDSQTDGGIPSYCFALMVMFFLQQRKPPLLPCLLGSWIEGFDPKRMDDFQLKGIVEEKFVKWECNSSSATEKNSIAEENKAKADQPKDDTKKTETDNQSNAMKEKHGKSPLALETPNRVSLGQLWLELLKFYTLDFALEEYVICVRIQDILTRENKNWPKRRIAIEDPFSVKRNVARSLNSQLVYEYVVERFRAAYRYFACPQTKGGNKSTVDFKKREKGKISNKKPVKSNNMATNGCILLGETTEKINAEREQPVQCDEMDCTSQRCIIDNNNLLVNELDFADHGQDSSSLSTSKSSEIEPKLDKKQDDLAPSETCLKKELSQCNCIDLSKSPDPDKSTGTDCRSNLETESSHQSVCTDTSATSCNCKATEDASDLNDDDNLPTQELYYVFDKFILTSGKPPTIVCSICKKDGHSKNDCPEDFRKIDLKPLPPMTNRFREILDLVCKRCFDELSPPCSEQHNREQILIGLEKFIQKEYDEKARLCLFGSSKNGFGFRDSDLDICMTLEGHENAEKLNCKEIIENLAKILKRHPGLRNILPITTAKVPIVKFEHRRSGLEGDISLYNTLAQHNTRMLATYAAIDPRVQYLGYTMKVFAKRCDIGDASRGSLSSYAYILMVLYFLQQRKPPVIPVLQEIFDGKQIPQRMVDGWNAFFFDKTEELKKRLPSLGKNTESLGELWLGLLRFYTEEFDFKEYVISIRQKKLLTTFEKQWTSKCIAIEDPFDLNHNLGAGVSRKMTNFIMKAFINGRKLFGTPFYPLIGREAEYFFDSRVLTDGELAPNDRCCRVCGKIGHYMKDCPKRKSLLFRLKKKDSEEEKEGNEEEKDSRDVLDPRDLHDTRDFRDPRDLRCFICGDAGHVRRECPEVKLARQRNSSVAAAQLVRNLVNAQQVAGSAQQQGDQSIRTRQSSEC
Experiment: TUTase assay (Zcchc11 assay, Lin28a-dependent polyuridylation of pre-let-7)
Format: biochemical
Settings: read-out: Potency Lin28a-dep Z11 IC50
Outline: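 Human Zcchc11 residues 212-1420 (HEK293-expressed, MBP tag cleaved, C-terminal FLAG) at 0.2 nM, with 10 nM full-length human LIN28A and 2 nM 5′-fluorescein pre-let-7, preincubated with compound 30 min at room temperature. Reaction started with 5 uM UTP plus 4 nM 3′-rhodamine A20 quench probe; fluorescein loss read kinetically, IC50 from initial rates.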

[1] = Lin28a-dependent Zcchc11 (Z11) TUTase activity
[2] = Lin28a-dependent Zcchc11 (Z11) TUTase assay

Compound | IC50 [1] [µM] | IC50 [2] [µM] | also measured
CN(C)C1CN(c2ccc(-n3cc(C(=O)O)c(=O)c4cc(F)c(N5CC(c6cccnc6)C[C@@H]5COc5ncccc5Cl)cc43)cn2)C1 (stereo partly drawn) [Compound 325, 7-[(2R)-2-[[(3-Chloropyridin-2-yl)oxy]methyl]-4-(pyridin-3-yl)pyrrolidin-1-yl]-1-[6-[3-(dimethyl-amino)azetidin-1-yl]pyridin-3-yl]-6-fluoro-4-oxoquinoline-3-carboxylic acid] | ≤ 1 | – | –
O=C(O)c1cn(-c2ccc3c(c2)CNC3)c2cc(N3CCC[C@@H]3COc3ncccc3Cl)c(Cl)cc2c1=O [Compound 236, 6-chloro-7-[(2R)-2-[[(3-chloropyridin-2-yl)oxy]methyl]pyrrolidin-1-yl]-1-(2,3-dihydro-1H-isoindol-5-yl)-4-oxoquinoline-3-carboxylic acid] | ≤ 1 | – | –
COC1CC(n2cc(C(=O)O)c(=O)c3cc(F)c(N4CCC[C@@H]4COc4ncccc4C)cc32)C1 (stereo partly drawn) [Example 30, (R)-6-fluoro-1-(3-methoxycyclobutyl)-7-(2-(((3-methylpyridin-2-yl)oxy)methyl)pyrrolidin-1-yl)-4-oxo-1,4-dihydroquinoline-3-carboxylic acid] | – | – | IC50 (LIN28A 10 nM, Zcchc11 0.2 nM, 5′-fluorescein pre-let-7 miRNA 2 nM, UTP 5 uM, room temperature, 30 minutes pre-incubation): ≤ 1 µM
COCCOc1ccc(-n2cc(C(=O)O)c(=O)c3cc(F)c(N4CCC[C@@H]4COc4ccccn4)cc32)cc1 [Example 406, (R)-6-fluoro-1-(4-(2-methoxyethoxy)phenyl)-4-oxo-7-(2-((pyridin-2-yloxy)methyl)pyrrolidin-1-yl)-1,4-dihydroquinoline-3-carboxylic acid] | – | ≤ 1 | –
O=C(O)c1cn2c3cc(c(Cl)cc3c1=O)N1CCC[C@@H]1COc1nc(ccc1Cl)OCCCNc1ccc-2cn1 [Compound 300, (R)-26,63-dichloro-24-oxo-21,24-dihydro-5,7-dioxa-11-aza-2(1,7)-quinolina-1(5,2),6(2, 6)-dipyridina-3(1,2)-pyrrolidina cyclo-undecaphane-23-carboxylic acid] | ≤ 1 | – | –
CC(C)(C)OC(=O)NC1CC(n2cc(C(=O)O)c(=O)c3cc(Cl)c(N4CCC[C@@H]4COc4ncccc4Cl)cc32)C1 (stereo partly drawn) [Example 484, (R)-1-(3-((tert-butoxycarbonyl)amino)cyclobutyl)-6-chloro-7-(2-(((3-chloropyridin-2-yl)oxy)methyl)pyrrolidin-1-yl)-4-oxo-1,4-dihydroquinoline-3-carboxylic acid] | – | ≤ 1 | –
CCN1CC(n2cc(-n3cc(C(=O)O)c(=O)c4cc(Cl)c(N5CCC[C@@H]5COc5ncccc5Cl)cc43)cn2)C1 [Compound 241] | ≤ 1 | – | –
CN(C)C1CN(c2ccc(-n3cc(C(=O)O)c(=O)c4cc(Cl)c(N5CC6(CC6)C[C@@H]5COc5nc(OC6CC6)ccc5Cl)cc43)cn2)C1 [Example 675, (R)-6-chloro-7-(6-(((3-chloro-6-cyclopropoxy-pyridin-2-yl)oxy)methyl)-5-azaspiro[2.4]heptan-5-yl)-1-(6-(3-(dimethylamino)azetidin-1-yl)pyridin-3-yl)-4-oxo-1,4-dihydroquinoline-3-carboxylic acid] | – | ≤ 1 | –
O=C(O)c1cn(-c2cnccn2)c2cc(N3CC(F)(F)C[C@@H]3COc3ncccc3Cl)c(Cl)cc2c1=O [Example 638, (R)-6-chloro-7-(2-(((3-chloropyridin-2-yl)oxy)methyl)-4,4-difluoropyrrolidin-1-yl)-4-oxo-1-(pyrazin-2-yl)-1,4-dihydroquinoline-3-carboxylic acid] | – | ≤ 1 | –
Cc1nn(C)cc1-n1cc(C(=O)O)c(=O)c2cc(Cl)c(N3CCC[C@@H]3COc3ncccc3Cl)cc21 [Compound 168, (R)-6-chloro-7-(2-(((3-chloropyridin-2-yl)oxy)methyl)pyrrolidin-1-yl)-1-(1,3-dimethyl-1H-pyrazol-4-yl)-4-oxo-1,4-dihydro-quinoline-3-carboxylic acid] | ≤ 1 | – | –
COCCOc1cnc(-n2cc(C(=O)O)c(=O)c3cc(F)c(N4CCC[C@@H]4COc4ncccc4C)cc32)cn1 [Compound 125, (R)-6-fluoro-1-(5-(2-methoxyethoxy)pyrazin-2-yl)-7-(2-(((3-methylpyridin-2-yl)oxy)methyl)pyrrolidin-1-yl)-4-oxo-1,4-dihydro-quinoline-3-carboxylic acid] | ≤ 1 | – | –
COc1ccc(Cl)c(OC[C@H]2C[C@H]3C[C@H]3N2c2nc3c(cc2Cl)c(=O)c(C(=O)O)cn3-c2ccc(N3CC(N(C)C)C3)nc2)n1 [Example 677, 6-chloro-7-((1R,3R,5R)-3-(((3-chloro-6-methoxypyridin-2-yl)oxy)methyl)-2-azabicyclo[3.1.0]hexan-2-yl)-1-(6-(3-(dimethylamino)azetidin-1-yl)pyridin-3-yl)-4-oxo-1,4-dihydro-1,8-naphthyridine-3-carboxylic aci] | – | ≤ 1 | –
O=C(O)c1cn(-c2ccnc(N3CCC3)c2)c2nc(N3CCC[C@@H]3COc3ncccc3Cl)c(Cl)cc2c1=O [Example 543, (R)-1-(2-(azetidin-1-yl)pyridin-4-yl)-6-chloro-7-(2-(((3-chloropyridin-2-yl)oxy)methyl)pyrrolidin-1-yl)-4-oxo-1,4-dihydro-1,8-naphthyridine-3-carboxylic acid] | – | ≤ 1 | –
CN(C)C1CN(c2ccc(-n3cc(C(=O)O)c(=O)c4cc(Cl)c(N5CCC[C@@H]5COc5nc6nc[nH]c6cc5Cl)cc43)cn2)C1 [Compound 204, (R)-6-chloro-7-(2-(((6-chloro-1H-imidazo [4,5-b]pyridin-5-yl)oxy)methyl)pyrrolidin-1-yl)-1-(6-(3-(dimethyl-amino)azetidin-1-yl)pyridin-3-yl)-4-oxo-1,4-dihydro-quinoline-3-carboxylic acid] | ≤ 1 | – | –
CN(C)c1ccc(Cl)c(OC[C@H]2CC3CC3N2c2cc3c(cc2Cl)c(=O)c(C(=O)O)cn3-c2ccc(N3CC(N(C)C)C3)nc2)n1 (stereo partly drawn) [Example 665, 6-chloro-7-((3R)-3-(((3-chloro-6-(dimethylamino)pyridin-2-yl)oxy)methyl)-2-azabicyclo[3.1.0]hexan-2-yl)-1-(6-(3-(dimethylamino)azetidin-1-yl)pyridin-3-yl)-4-oxo-1,4-dihydroquinoline-3-carboxylic acid] | – | ≤ 1 | –
O=C(O)c1cn(-c2ccccc2F)c2cc(N3CCC[C@@H]3COc3ccccn3)c(F)cc2c1=O [Example 373, (R)-6-fluoro-1-(2-fluorophenyl)-4-oxo-7-(2-((pyridin-2-yloxy)methyl)pyrrolidin-1-yl)-1,4-dihydroquinoline-3-carboxylic acid] | – | 1 to 10 | –
CN(C)C1CN(c2ccc(-n3cc(C(=O)O)c(=O)c4cc(Cl)c(N5CC(F)(F)C[C@@H]5COc5ncccc5Cl)nc43)cn2)C1 [Compound 301, (R)-6-chloro-7-(2-(((3-chloropyridin-2-yl)oxy)methyl)-4,4-difluoro-pyrrolidin-1-yl)-1-(6-(3-(dimethyl-amino)azetidin-1-yl)pyridin-3-yl)-4-oxo-1,4-dihydro-1,8-naphthyridine-3-carboxylic acid] | ≤ 1 | – | –
COc1ccc(Cl)c(OC[C@H]2C[C@H]3C[C@H]3N2c2cc3c(cc2Cl)c(=O)c(C(=O)O)cn3-c2ccc(N3CC(N(C)C)C3)nc2)n1 [Example 660, 6-chloro-7-((1R,3R,5R)-3-(((3-chloro-6-methoxypyridin-2-yl)oxy)methyl)-2-azabicyclo[3.1.0]hexan-2-yl)-1-(6-(3-(dimethylamino)azetidin-1-yl)pyridin-3-yl)-4-oxo-1,4-dihydroquinoline-3-carboxylic acid] | – | ≤ 1 | –
O=C(O)c1cn(C2CC(CO)C2)c2cc(N3CCC[C@@H]3COc3ccccn3)c(F)cc2c1=O (stereo partly drawn) [Compound 165, (R)-6-fluoro-1-(3-(hydroxy-methyl)cyclo-butyl)-4-oxo-7-(2-((pyridin-2-yloxy)methyl)pyrrolidin-1-yl)-1,4-dihydro-quinoline-3-carboxylic acid] | 10 to 50 | – | –
O=C(O)c1cn(C2CCOCC2)c2cc(N3CCC[C@@H]3COc3ccccn3)c(F)cc2c1=O [Example 450, (R)-6-fluoro-4-oxo-7-(2-((pyridin-2-yloxy)methyl)pyrrolidin-1-yl)-1-(tetrahydro-2H-pyran-4-yl)-1,4-dihydroquinoline-3-carboxylic acid] | – | 1 to 10 | –
